Data published in US5484778A, “Phthalocyanine photosensitizers for photodynamic therapy and methods for their use” (priority 1993, dated 1996).
Like-named read-outs stand apart in the source and are kept apart here.

Key:
[1] = white light
[2] = tested on: Chinese hamster V79-379 cells; test: Uptake of phthalocyanines by V79 cells relative to AlPcCl (Table 1); type: cell-based
Method: (§1) Chinese hamster V79-379 lung fibroblasts were grown in monolayer culture in McCoy's 5A medium (Gibco Laboratories, Grand Island, N.Y.) augmented with 10% calf serum and buffered with 20 mM HEPES (pH 7.4).
Total uptake was determined by scraping the phthalocyanine-treated monolayer, collecting the cells on a glass-fiber filter, and extracting the phthalocyanine in ethanol, as previously described by Ramakrishnan, et al., 1989. (Ramakrishnan, N., M. E. Clay, M. F. Horng, A. R. Antunez, & H. H. Evans, "DNA Lesions and DNA Degradation in Mouse Lymphoma L5178Y Cells After Photodynamic Treatment Sensitized by Chloroaluminum Phthalocyanine",Photochem. Photobiol, in press, 1989). The amount of drug was determined by absorption at 674 nm and expressed relative to the number of cells, as measured in a Coulter cell counter on an aliquot of the cell population. Controls included cells not treated with drug, medium alone, and drug-containing medium without cells. The results of the total uptake of the various compositions of the present invention in comparison to AlPcCl are set forth below in Table 1.
(§2) The cells were treated with 1 μM AlPcCl (from Eastman Kodak, Rochester, N.Y.) or with phthalocyanine compositions I-VI (0.5-1.0 μM final concentration in the medium) for 18 hours by adding the appropriate volume of a 1.0 mM stock solution in dimethylformamide (DMF) to the culture medium. The growth medium was replaced with 4 ml Hank's balanced salt solution (HBSS), and the cells were irradiated. The light source was a 500 W tungsten-halogen lamp located approximately 29 inches below the surface of a glass exposure tray. The visible light administered to the cells was filtered to allow passage of only that portion of the visible spectrum above 600 nm (Lee Primary red filter No. 106, Vincent Lighting, Cleveland, Ohio). The fluence rate was approximately 0.074 kJ/m^2 /s at the level of the cell monolayer.
All of the compounds have been examined for the extent of cellular uptake after exposure of V79 cells to 1 μM or less in complete medium, and the data of Table 1 are presented relative to the uptake from 1 μM AlPcCl, which was 0.723±0.172 nmole/10^7 cells (mean ±S. D., 25 determinations). […] In particular, when the concentration of Compound IV was 1 μM in the medium, the uptake into the cells was sufficiently high that some of the uptake and phototoxicity studies were repeated at 0.5 μM.

[3] = tested on: Chinese hamster V79-379 cells; test: Growth delay of V79 cultures after red light (Table 1); type: cell-based; conditions: for Growth Delay, efficiency relative to 1 μM AlPcCl: 18 h, 12 kJ/m^2 red light; for inhibition of V79 culture growth (in words): red light 12 kJ/m^2, three day period
Method: as §1, §2
At the time of light exposure, there were approximately 1.5×10^5 cells per 25 cm^2 flask. Following irradiation, the HBSS was replaced by 10 ml of fresh complete growth medium, and the cultures were returned to the 37° C. incubator. At various times before and after irradiation, duplicate cultures were trypsinized and counted. Controls included untreated cells and cells treated with light alone or drug alone. In addition, in each experiment, the drug to be tested was compared to a standard treatment, i.e. 1 μM AlPcCl for 18 hours followed by 12 kJ/m^2 light.
The inhibition of V79 culture growth was measured during a three day period following red light irradiation (12 kJ/m^2) of phthalocyanine-pretreated cells. With each of the active compounds, as well as with AlPcCl, there was an initial decrease in cell density, as dead cells became detached from the monolayer. Thereafter, the cell number per flask increased, as living cells grew and divided. The time for the cell density to recover to the level at the time of light exposure was considered the growth delay. […] The ratio of the growth delay for the test photosensitizer and the growth delay for AlPcCl measured in the same experiment is recorded in Table 1.

[4] = tested on: Chinese hamster V79-379 cells; test: Clonogenic cell survival / photocytotoxicity in V79 cells (Table 1, FIG. 1, FIG. 2); type: cell-based; conditions: for CF10 (AlPcCl)/CF10 (Pc) / F10 (AlPcCl)/F10 (Pc): 1.0 μM, 18 h; for CF10 (AlPcCl)/CF10 (Pc): CF10 = intracellular concentration x fluence reducing survival to 10%; for F10 (AlPcCl)/F10 (Pc): F10 = fluence reducing survival to 10%
Method: FIG. 1 is a graph illustrating the photodynamic efficacy of the various compositions of the present invention in comparison to AlPcCl. The phthalocyanine composition compounds of the present invention were tested for their photodynamic efficiency against Chinese hamster fibroblast V79 cells by colony formation. Monolayer cultures were treated with the indicated phthalocyanine composition for 18 hours, irradiated with various fluences of red light, and immediately trypsinized and replated at appropriate aliquots in triplicate. Colonies of at least 50 cells were counted after 7-10 days. The plating efficiency of the untreated cells was approximately 90%.
In this regard, in FIG. 2 the data of FIG. 1 were replotted as a function of the product of the amount of cell-associated phthalocyanine and the light fluence.
as §1, §2
Cells were irradiated at a density of approximately 2×10^6 per 25 cm^2 flask. Immediately after irradiation, the cell monolayer was treated with trypsin, and appropriate aliquots were plated in triplicate to give 100 to 200 colonies in each 10-cm Petri dish. Cell survival was determined by the ability of the cells to form colonies containing at least 50 cells. The response of cells treated with 1 μM AlPcCl and light was compared in each experiment.
Photocytotoxicity of the phthalocyanines compounds I to VI was also assessed by clonogenic assay (Table 1, FIG. 1). In all experiments, 1 μM AlPcCl was included for comparison purposes. From the survival curves (FIG. 1), the fluence reducing the cell survival to 10% (F10) was obtained. The ratio of the F10 for AlPcCl and the F10 for the test compound is recorded in Table 1.
In order to take differences in cellular uptake into consideration in the assessment of the relative efficiency of these phthalocyanines as photosensitizers of V79 cells, the survival data were replotted against the product of intracellular phthalocyanine concentration and light fluence (FIG. 2). From these curves, the product of intracellular concentration and light fluence reducing survival to 10% (CF10) was obtained, and comparisons of the values for AlPcCl and the test compounds are recorded in Table 1.

V79 cells = test: Clonogenicity, killing of V79 cells using photodynamic therapy (Table 3); type: cell-based, Chinese hamster; conditions: Cricetulus griseus, V79; concentration not given, at 10 kJ/m^2; read-out: Maximum Effect (% survival)
How it was run: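 V79 Chinese hamster lung fibroblasts were loaded with 0.5 or 1.0 μM phthalocyanine, then about 18 h later irradiated with increasing doses of 675 nm broad-band red light (tungsten-halogen lamp, 600 nm high-pass filter). Recorded value is the light dose killing 90% of cells, or, failing that, the maximum kill (% survival) and its dose.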

L5178Y cells = test: Induction of apoptosis (DNA fragmentation) in L5178Y-R cells (Table 6); type: cell-based, mouse; conditions: 0.5 μM, DMF-Tween 80
How it was run: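 Exponentially growing mouse lymphoma L5178Y-R cells loaded 18 hours with phthalocyanine at various concentrations, then irradiated with >600 nm red light (up to 30 kJ/m^2, ~74 W/m^2). DNA isolated 2 hours post-PDT, run on 1.5% agarose; value is minimum PDT dose (concentration × fluence) giving visible DNA ladder.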

| Structure (SMILES) | photolysis of solutions [1] | Growth Delay, efficiency relative to 1 μM AlPcCl [3] | inhibition of V79 culture growth (in words) [3] | CF10 (AlPcCl)/CF10 (Pc) [4] | F10 (AlPcCl)/F10 (Pc) [4] | other results |
| --- | --- | --- | --- | --- | --- | --- |
| CN(C)CCC[Si](C)(C)[O][Al]1[n]2c3c4ccccc4c2N=C2N=C(N=c4c5ccccc5c([n]41)=NC1=NC(=N3)c3ccccc31)c1ccccc12 [Compound I, AlPcOSi(CH3)2 (CH2)3 N(CH3)2] | – | 2.1 | substantial inhibition | 0.51 | 0.94 | Uptake, efficiency relative to 1 μM AlPcCl ([2]; 1.0 μM, 18 h): 2.3; cellular uptake (in words) ([2]; V79 cells, 1 μM or less, compared with AlPcCl): taken up into the cells more efficiently than was AlPcCl; photosensitizing efficiency / photocytotoxicity (in words) ([4]; V79 cells, red light): nearly as efficient photosensitizers as AlPcCl; solubility in solvents (Solubility): soluble in CH2 Cl2 and toluene |
| C[N+](C)(C)CCC[Si](C)(C)[O][Al-2]123[n]4c5c6ccccc6c4N=c4c6ccccc6c([n]41)=NC1=[N+]2C(=NC2=[N+]3C(=N5)c3ccccc32)c2ccccc21.I [Compound II, AlPcOSi(CH3)2 (CH2)3 N(CH3)3^+ I^-] | – | 3.4 | substantial inhibition | 0.72 | 0.99 | photosensitizing efficiency / photocytotoxicity (in words) [4]: nearly as efficient photosensitizers as AlPcCl |
| CN1CCN(CCC[Si](C)(C)O[Si]2(O[Si](C)(C)CCCN3CCN(C)CC3)n3c4c5ccccc5c3N=C3N=C(N=c5c6ccccc6c(n52)=NC2=NC(=N4)c4ccccc42)c2ccccc23)CC1 [Compound XXX, SiPc[OSi(CH3)2 (CH2)3 NC4 H8 NCH3]2] | – | – | – | – | – | Cell survival at highest light dose (V79 cells): 30%; Minimum Demonstrated Condition to induce apoptosis: C × F (L5178Y cells): 7.5 μm × kJ/m^2; Minimum Demonstrated Condition to induce apoptosis: Fluence (L5178Y cells): 15.0 kJ/m^2; solubility (Solubility): < 500 µM; solubility in DMF (Solubility): not soluble in DMF |
| C[Si](C)(CCCN1CCNCC1)O[Si]1(O[Si](C)(C)CCCN2CCNCC2)n2c3c4ccccc4c2N=C2N=C(N=c4c5ccccc5c(n41)=NC1=NC(=N3)c3ccccc31)c1ccccc12 [Compound XXXII, SiPc[OSi(CH3)2 (CH2)3 NC4 H8 NH]2] | – | – | – | – | – | Minimum Demonstrated Condition to induce apoptosis: C × F (L5178Y cells): 2.5 μm × kJ/m^2; Minimum Demonstrated Condition to induce apoptosis: Fluence (L5178Y cells): 5 kJ/m^2; solubility in DMF (Solubility): not soluble in DMF |
| [Cl][Al]1[n]2c3c4ccccc4c2N=C2N=C(N=c4c5ccccc5c([n]41)=NC1=NC(=N3)c3ccccc31)c1ccccc12 [AlPcCl, chloroaluminum phthalocyanine, reference compound] | – | 1.0 | – | 1.0 | 1.0 | uptake from 1 μM AlPcCl [2]: 0.723±0.172 nmole/10^7 cells; growth delay ([3]; 1 μM for 18 hours and 12 kJ/m^2 light): approximately 24 hours |

Continued, in another order:

| photolysis of solutions [1] | Structure (SMILES) | Growth Delay, efficiency relative to 1 μM AlPcCl [3] | inhibition of V79 culture growth (in words) [3] | CF10 (AlPcCl)/CF10 (Pc) [4] | F10 (AlPcCl)/F10 (Pc) [4] | other results |
| --- | --- | --- | --- | --- | --- | --- |
| rapidly photolyzed by white light | CN1CCN(CCC[Si](C)(C)O[Si]2(C)n3c4c5ccccc5c3N=C3N=C(N=c5c6ccccc6c(n52)=NC2=NC(=N4)c4ccccc42)c2ccccc23)CC1 (stereo not drawn) [CH3 SiPcOSi(CH3)2 (CH2)3 NC4 H8 NCH3] | – | – | – | – | – |
| rapidly photolyzed by white light | CN(C)CCC[Si](C)(C)O[Si]1(C)n2c3c4ccccc4c2N=C2N=C(N=c4c5ccccc5c(n41)=NC1=NC(=N3)c3ccccc31)c1ccccc12 (stereo not drawn) [Compound III, CH3 SiPcOSi(CH3)2 (CH2)3 N(CH3)2] | 0.05 | less inhibition of culture growth | – | – | photosensitizing efficiency / photocytotoxicity (in words) [4]: low activity |
| rapidly photolyzed by white light | CCN(CCC[Si](C)(C)O[Si]1(C)n2c3c4ccccc4c2N=C2N=C(N=c4c5ccccc5c(n41)=NC1=NC(=N3)c3ccccc31)c1ccccc12)CCN(C)C (stereo not drawn) [CH3 SiPcOSi(CH3)2 (CH2)3 N(CH2 CH3)(CH2)2 N(CH3)2] | – | – | – | – | – |
| rapidly photolyzed by white light | CN(C)CCCN(CCCN(C)C)CCC[Si](C)(C)O[Si]1(C)n2c3c4ccccc4c2N=C2N=C(N=c4c5ccccc5c(n41)=NC1=NC(=N3)c3ccccc31)c1ccccc12 (stereo not drawn) [CH3 SiPcOSi(CH3)2 (CH2)3 N[(CH2)3 N(CH3)2]2] | – | – | – | – | – |
